Patent US9006174B2 (priority 2009, dated 2015)
Ends that are not written are not given here.

Each sequence was assayed on hRBCs. Conditions: human erythrocytes, 1 h at 37° C.

Sequence | Toxicity Haemolysis (hRBCs)
RFGRFLRKIRRFRGKVTITIQGSARF [CMAP26 (P14→G)] | − (<25% dead cells)
RFGRFLRKIRRFRLKVTITIQGSARF [CMAP26 (P14→L)] | − (<25% dead cells)
RFGRFLRKIRRLRPK [CMAP(1-15) (F12→L), RFGRFLRKIRRLRPK] | − (<25% dead cells)
RFGRFLRKIRRWRPK [CMAP(1-15) (F12→W), RFGRFLRKIRRWRPK] | −− (<5% dead cells)
